Counter-ions that a name gives are not always drawn.
How the values were obtained:
D3 receptors = target: T1, D3 receptors (Chlorocebus aethiops, UniProt P52703); assay: D3 receptor binding ([3H]YM 09151-2 displacement, COS cell pellets with recombinant receptor); design: species or system African Green monkey; details: 0.5 nM 3H-YM 09151-2; recombinant receptor in COS cells; nonspecific with 1 mM spiperone; text also says rat striatal homogenates
T1 construct: expressed in transfected cells; host or cells: COS cells
T1 sequence (P52703 whole entry): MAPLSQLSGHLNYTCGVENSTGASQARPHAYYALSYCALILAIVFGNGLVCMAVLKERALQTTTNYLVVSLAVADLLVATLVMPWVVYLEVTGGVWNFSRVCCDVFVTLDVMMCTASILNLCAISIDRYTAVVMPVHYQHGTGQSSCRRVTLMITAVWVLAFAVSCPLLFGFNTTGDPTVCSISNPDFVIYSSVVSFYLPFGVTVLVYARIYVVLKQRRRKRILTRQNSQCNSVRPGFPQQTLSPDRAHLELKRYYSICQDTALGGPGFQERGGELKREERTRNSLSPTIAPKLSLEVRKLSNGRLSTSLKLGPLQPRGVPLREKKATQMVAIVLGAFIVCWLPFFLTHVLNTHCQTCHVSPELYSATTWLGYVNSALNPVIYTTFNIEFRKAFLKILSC
Method: (§1) Pellets of COS cells containing recombinantly produced D2 or D3 receptors from African Green monkey were used for the assays. The sample is homogenized in 100 volumes (w/vol) of 0.05M Tris HCl buffer at 4° C. and pH 7.4. The sample is then centrifuged at 30,000×g and resuspended and rehomogenized. The sample is then centrifuged as described and the final tissue sample is frozen until use. The tissue is resuspended 1:20 (wt/vol) in 0.05M Tris HCl buffer containing 100 mM NaCl.
(§2) Incubations are carried out at 48° C. and contain 0.4 ml of tissue sample, 0.5 nM ^3 H-YM 09151-2 and the compound of interest in a total incubation of 1.0 ml. Nonspecific binding is defined as that binding found in the presence of […] spiperone; without further additions, nonspecific binding is less than 20% of total binding. The binding characteristics of representative compounds of the invention for D2 and D3 receptor subtypes are shown in Table 2 for rat striatal homogenates.

D2 receptors = target: T2, D2 receptors (Chlorocebus aethiops, UniProt P52702); assay: D2 receptor binding ([3H]YM 09151-2 displacement, COS cell pellets with recombinant receptor); design: species or system African Green monkey; details: 0.5 nM 3H-YM 09151-2; recombinant receptor in COS cells; nonspecific with 1 mM spiperone; text also says rat striatal homogenates
T2 construct: 3H-YM 09151-2 displacement
T2 sequence (P52702 whole entry): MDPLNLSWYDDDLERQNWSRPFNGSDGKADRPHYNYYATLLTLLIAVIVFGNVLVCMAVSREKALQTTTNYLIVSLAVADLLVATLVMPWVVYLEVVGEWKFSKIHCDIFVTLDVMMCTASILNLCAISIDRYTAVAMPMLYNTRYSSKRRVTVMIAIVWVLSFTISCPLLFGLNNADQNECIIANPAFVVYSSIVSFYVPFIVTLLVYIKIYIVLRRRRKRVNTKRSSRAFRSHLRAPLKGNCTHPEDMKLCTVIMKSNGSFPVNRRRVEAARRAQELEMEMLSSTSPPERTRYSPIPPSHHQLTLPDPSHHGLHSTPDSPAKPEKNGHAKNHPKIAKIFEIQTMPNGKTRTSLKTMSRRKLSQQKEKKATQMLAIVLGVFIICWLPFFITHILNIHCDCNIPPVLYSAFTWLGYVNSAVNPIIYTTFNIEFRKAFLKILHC
Method: as §1, §2

Ki (D3 receptors) | Ki (D2 receptors) | SMILES
0.5 nM | 250 nM | O=C(NCCCCN1CCN(c2cccc(Cl)c2Cl)CC1)c1ccc2[nH]c3c(c2c1)CCCC3 [Compound 1, N-(1-{4-[4-(2,3-dichlorophenyl)piperazine-1-yl]}butyl)-1,2,3 4-tetrahydrocarbazole-6-carboxamide hydrochloride]
2 nM | 540 nM | Cn1c2ccccc2c2cc(C(=O)NCCCCN3CCN(c4cccc(Cl)c4Cl)CC3)ccc21 [Compound 3, N-(1-{4-[4-(2,3-dichlorophenyl)piperazine-1-yl]}butyl)-9-methylcarbazole-3-carboxamide hydrochloride]
1 nM | 750 nM | O=C(NCCCCN1CCN(c2cccc(Cl)c2Cl)CC1)c1ccc2c(c1)[nH]c1ccccc12 [Compound 4, N-(1-{4-[4-(2,3-dichlorophenyl)piperazine-1-yl]}butyl)-9H-carbazole-2-carboxamide hydrochloride]
